Each structure is given as a SMILES string. Activity calls are given as the source filed them. The rule behind the calls is not given here.

Data set [1] has as its system BXPC-3. Description: Cell cycle arrest in human BXPC-3 cells assessed as acumulation at G0/G1 phase by measuring downregulation of CDK2 at 4 to 16 uM measured after 48 hrs by Western blot analysis. Format: functional, cell-based. The following applies: dose 4-16 µM. A general note: In western blotting, separated proteins are transferred to a membrane and probed.
For data set [2], the system named is BXPC-3. Description: Induction of apoptosis in human BXPC-3 cells assessed as early apoptotic cells at 8 uM measured after 48 hrs by AnnexinV/propidium iodide staining based flow cytometry (reference value: 1.02 %). Format: functional. Background: Flow cytometry measures light scatter and fluorescence of single cells or particles in a stream.
For data set [3], the target named is Bromodomain-containing protein 4 (Homo sapiens, UniProt O60885). Description: Inhibition of BRD4 (unknown origin) at 1 uM preincubated for 15 mins followed by substrate addition and measured after 1 hr by AlphaScreen assay relative to control. The following applies: time 75.0 min. A general note: In Alpha technology, singlet oxygen from a donor bead excites a nearby acceptor bead.

For data set [4], the system named is BXPC-3. Put plainly: Induction of apoptosis in human BXPC-3 cells assessed as early apoptotic cells at 16 uM measured after 48 hrs by AnnexinV/propidium iodide staining based flow cytometry (reference value: 1.02 %). It counts as functional.
For data set [5], the system named is BXPC-3. Put plainly: Induction of apoptosis in human BXPC-3 cells assessed as upregulation of caspase 3 at 4 to 16 uM measured after 48 hrs by Western blot analysis. Format: functional, cell-based. The note with it: dose 4-16 µM.
Data set [6] deals with BXPC-3. Put plainly: Induction of apoptosis in human BXPC-3 cells assessed as increase in cleaved PARP expression at 4 to 16 uM measured after 48 hrs by Western blot analysis. The following applies: dose 4-16 µM. Format: functional, cell-based.
In data set [7] the test system is BXPC-3. Put plainly: Antiproliferative activity against human BXPC-3 cells assessed as cell growth inhibition at 2 uM measured after 48 to 72 hrs by MTT assay relative to control. It counts as functional. The following applies: time 48-72 hrs, read-out: GI.
Data set [8] concerns BXPC-3. Put plainly: Induction of apoptosis in human BXPC-3 cells assessed as late apoptotic cells at 16 uM measured after 48 hrs by AnnexinV/propidium iodide staining based flow cytometry (reference value: 1.02 %). Format: functional.
In data set [9] the test system is BXPC-3. Put plainly: Anticlonogenic activity against human BXPC-3 cells assessed as reduction in colony formation at 0.25 umol/L incubated for 10 days by crystal violet staining based assay. It counts as functional, cell-based. The note with it: dose 0.25 µmol/L, time 10.0 day.
The nature of data set [10]: Toxicity in BALB/c mouse allografted with mouse Panc02 cells assessed as effect on body weight at 50 mg/kg, ip administered every day measured after 19 days. It counts as organism-based. The following applies: in vivo, 456 h, time 19 day.
The subject of data set [11] is BXPC-3. Put plainly: Induction of apoptosis in human BXPC-3 cells assessed as increase in cytochrome C expression at 4 to 16 uM measured after 48 hrs by Western blot analysis. The following applies: dose 4-16 µM. It counts as functional, cell-based.
Data set [12] concerns BXPC-3. Description: Induction of apoptosis in human BXPC-3 cells assessed as downregulation of Bcl-xl at 4 to 16 uM measured after 48 hrs by Western blot analysis. Format: functional, cell-based. The following applies: dose 4-16 µM.
The test system of data set [13] is BXPC-3. Put plainly: Induction of apoptosis in human BXPC-3 cells assessed as late apoptotic cells at 4 uM measured after 48 hrs by AnnexinV/propidium iodide staining based flow cytometry (reference value: 5.15 %). It counts as functional.
The test system of data set [14] is BXPC-3. Description: Induction of apoptosis in human BXPC-3 cells measured after 48 hrs by AnnexinV/propidium iodide staining based flow cytometry. The note with it: dose 4-16 µM. Format: functional, cell-based.

One may read the inhibition as the drop in the measured response relative to a control, in per cent. A low value points to little suppression. Regarding `CCS(=O)(=O)Nc1ccc(Oc2ccccc2F)c(-c2cn(C)c(=O)c3cncn23)c1`, the result in the data set on BXPC-3 [1], in the data set on BXPC-3 [5], in the data set on BXPC-3 [6], in the data set with BXPC-3 [9], with BXPC-3 [11] and with BXPC-3 [12] was Active. Further, the Activity with BXPC-3 [2] was 1.61%; with BXPC-3 [4], 2.35%; in the data set on BXPC-3 [8], 19.21%; in data set [10] it was “Non-Toxic”; in the data set on BXPC-3 [13], 8.59%; with BXPC-3 [14], “Dose-dependent effect”. For the same molecule, the inhibition in [3] was found to be 100%. The inhibition of growth at 2 µM with BXPC-3 [7] worked out at 38.4%.

These data come from ChEMBL document CHEMBL4673289, “Design, synthesis and biological evaluation of imidazolopyridone derivatives as novel BRD4 inhibitors” (Bioorg Med Chem, 2021).
